From publication PMC10647861, “New Thiazolyl-Pyrazoline Derivatives as Potential Dual EGFR/HER2 Inhibitors: Design, Synthesis, Anticancer Activity Evaluation and In Silico Study” (Molecules, 2023)
Like-named read-outs stand apart in the source and are kept apart here. Values belong to the molecule of their own block, whether it stands above or below them.

What was measured:
[1] = test system: MCF-7; test: MTT anti-proliferative assay toward MCF-7; conditions: Homo sapiens, MCF7, 48 h, read-out: IC50 toward MCF-7
Protocol: Anti-proliferative activities were done using the MTT colorimetric assay [58]. Cell viability was assessed after 48 h, and the viability was calculated relative to the control [59]
Experimental of biological evaluations
Anti-proliferative activities were done using MTT colorimetric assay.
Both cell lines were provided with 10% fetal bovine serum (FBS, Sigma-Aldrich, MO, USA) and 1% penicillin-streptomycin (Lonza, Belgium). Cells were incubated following standard tissue culture work. Cell viability was assessed after 48 h using MTT solution (Promega, USA). Absorbance was subsequently measured (at 570 nm) using ELISA microplate reader (BIO-RAD, model iMark, Japan). The viability was calculated relative to control.
EGFR and HER2 enzyme inhibition
(§1) Measurement of potential EGFR/ HER2 inhibitory activities was performed using EGFR
(§2) following equation was used to determine the proportion of autophosphorylation inhibition by
concentrations for each compound.
Cell cycle analysis and apoptotic assay
MCF-7 cells were seeded into 6-well culture plates (3-5× 10^5 cells/well) and incubated
48 h. Subsequently, cells and medium supernatants were gathered and washed with ice-cold PBS.
The cells were then suspended in 100 µL of the annexin binding buffer solution, which was described as "25 mM CaCl 2, 1.4 M NaCl, and 0.1 M Hepes/NaOH, pH 7.4”. The cell incubation and addition of Annexin V-FITC solution, and propidium iodide (PI) were done according to the reported procedure. Next, the Cytoflex FACS equipment was used to obtain the stained cells. The program CytExpert was used to analyze the data.

[2] = test system: MCF-10A; test: MTT cytotoxicity assay toward MCF-10A; assay type: cell-based; conditions: Homo sapiens, 48 h
[3] = test system: MCF-7; test: Cell cycle analysis in MCF-7; assay type: cell-based; conditions: for DNA Content %G0-G1 / DNA Content %G2/M / DNA Content %S: MCF-7, compound at its IC50, 48 h
[4] = test system: MCF-7 cells; test: Annexin V/PI apoptosis analysis in MCF-7; assay type: cell-based; conditions: MCF-7, compound at its IC50, 48 h
[5] = target: EGFR Kinase (Homo sapiens, UniProt P00533); test: EGFR kinase inhibitory assay (BPS Bioscience kit)
Sequence of EGFR Kinase (P00533 25-1210): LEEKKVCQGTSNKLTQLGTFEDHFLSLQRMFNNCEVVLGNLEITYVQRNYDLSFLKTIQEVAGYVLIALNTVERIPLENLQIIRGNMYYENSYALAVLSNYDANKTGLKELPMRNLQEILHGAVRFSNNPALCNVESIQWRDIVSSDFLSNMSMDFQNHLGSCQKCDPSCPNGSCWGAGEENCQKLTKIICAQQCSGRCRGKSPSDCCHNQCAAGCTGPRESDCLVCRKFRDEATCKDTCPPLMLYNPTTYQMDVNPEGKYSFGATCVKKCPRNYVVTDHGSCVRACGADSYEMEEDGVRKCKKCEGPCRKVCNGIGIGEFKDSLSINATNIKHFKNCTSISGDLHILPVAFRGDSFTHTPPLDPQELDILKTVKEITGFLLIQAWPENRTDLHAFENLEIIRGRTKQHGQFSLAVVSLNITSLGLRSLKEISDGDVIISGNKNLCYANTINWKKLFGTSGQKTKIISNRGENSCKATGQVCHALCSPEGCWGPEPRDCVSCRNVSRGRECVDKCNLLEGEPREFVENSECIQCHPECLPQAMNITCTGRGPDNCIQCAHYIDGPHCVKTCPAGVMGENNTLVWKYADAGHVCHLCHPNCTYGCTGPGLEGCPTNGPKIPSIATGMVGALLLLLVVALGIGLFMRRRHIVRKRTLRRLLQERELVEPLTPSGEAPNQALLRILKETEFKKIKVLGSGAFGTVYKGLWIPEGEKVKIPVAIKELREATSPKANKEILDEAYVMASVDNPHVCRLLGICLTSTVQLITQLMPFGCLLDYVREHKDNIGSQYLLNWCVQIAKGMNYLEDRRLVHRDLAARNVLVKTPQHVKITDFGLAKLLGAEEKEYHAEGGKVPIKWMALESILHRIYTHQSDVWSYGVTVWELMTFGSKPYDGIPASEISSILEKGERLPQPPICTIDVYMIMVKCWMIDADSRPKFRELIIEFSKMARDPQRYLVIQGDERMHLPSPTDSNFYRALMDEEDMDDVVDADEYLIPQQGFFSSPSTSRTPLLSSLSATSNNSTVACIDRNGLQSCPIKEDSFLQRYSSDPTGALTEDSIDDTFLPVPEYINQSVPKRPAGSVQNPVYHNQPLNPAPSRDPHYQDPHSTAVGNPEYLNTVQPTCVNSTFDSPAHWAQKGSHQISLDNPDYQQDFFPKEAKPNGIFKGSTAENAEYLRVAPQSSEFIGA
Protocol: Experimental of biological evaluations
EGFR and HER2 enzyme inhibition
as §1, §2
concentrations for each compound.

[6] = target: HER2 Kinase (Homo sapiens, UniProt P04626); test: HER2 kinase inhibitory assay (BPS Bioscience kit)
Sequence of HER2 Kinase (P04626 23-1255): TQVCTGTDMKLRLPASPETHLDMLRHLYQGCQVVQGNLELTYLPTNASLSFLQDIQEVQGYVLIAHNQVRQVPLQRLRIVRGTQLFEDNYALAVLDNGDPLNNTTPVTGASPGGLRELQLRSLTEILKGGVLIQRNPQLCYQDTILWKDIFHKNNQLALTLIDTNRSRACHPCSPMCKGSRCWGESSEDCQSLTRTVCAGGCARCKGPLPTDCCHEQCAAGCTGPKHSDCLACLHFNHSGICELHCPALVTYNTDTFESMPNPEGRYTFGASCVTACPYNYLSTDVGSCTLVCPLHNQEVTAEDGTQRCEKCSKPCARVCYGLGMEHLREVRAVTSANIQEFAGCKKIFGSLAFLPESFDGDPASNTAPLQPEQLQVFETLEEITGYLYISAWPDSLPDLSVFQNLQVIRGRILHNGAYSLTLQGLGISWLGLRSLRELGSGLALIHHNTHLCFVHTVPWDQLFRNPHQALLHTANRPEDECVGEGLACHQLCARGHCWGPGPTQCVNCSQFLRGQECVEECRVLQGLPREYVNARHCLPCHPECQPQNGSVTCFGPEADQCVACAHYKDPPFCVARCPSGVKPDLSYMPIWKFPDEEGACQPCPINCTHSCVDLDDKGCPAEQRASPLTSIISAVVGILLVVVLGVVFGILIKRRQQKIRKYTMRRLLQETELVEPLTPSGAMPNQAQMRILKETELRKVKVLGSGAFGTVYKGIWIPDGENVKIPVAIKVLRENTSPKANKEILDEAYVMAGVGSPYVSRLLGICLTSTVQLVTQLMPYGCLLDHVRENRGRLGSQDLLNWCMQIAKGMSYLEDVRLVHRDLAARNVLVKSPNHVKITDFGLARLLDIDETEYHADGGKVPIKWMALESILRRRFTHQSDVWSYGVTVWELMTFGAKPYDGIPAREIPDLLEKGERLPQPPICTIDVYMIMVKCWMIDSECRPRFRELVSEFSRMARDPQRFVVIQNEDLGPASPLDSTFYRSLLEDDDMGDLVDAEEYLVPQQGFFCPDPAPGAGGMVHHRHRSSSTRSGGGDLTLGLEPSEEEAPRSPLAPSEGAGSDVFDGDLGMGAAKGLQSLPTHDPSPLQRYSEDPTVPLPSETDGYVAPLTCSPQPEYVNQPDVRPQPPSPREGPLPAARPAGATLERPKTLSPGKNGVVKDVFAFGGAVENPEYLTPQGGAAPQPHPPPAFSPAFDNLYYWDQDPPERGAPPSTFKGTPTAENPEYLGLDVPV
Protocol: Experimental of biological evaluations
EGFR and HER2 enzyme inhibition
as §1, §2
concentrations for each compound.

[7] = test system: HER2; conditions: cited from earlier work
[8] = test system: MCF-7; conditions: cited from earlier work
[9] = test system: EGFR; conditions: cited from earlier work
[10] = test system: A549; design: method as in PMID 21802290; conditions: cited from earlier work
[11] = test system: T-47D cell line; design: method as in PMID 37049966; conditions: cited from earlier work

melting point: 192 to 194 °C
IC50 [1]: 18.6 ± 0.19 µM
SMILES: COc1ccc(C2CC(c3ccc(OC)c(OC)c3)=NN2c2nc(C)c(N=Nc3ccc(Cl)cc3)s2)cc1 (centres unmarked) [Compound 4a, 5-((4-Chlorophenyl)diazenyl)-2-(3-(3,4-dimethoxyphenyl)-5-(4-methoxyphenyl)-4,5-dihydro-1H-pyrazol-1-yl)-4-methylthiazole]

melting point: 200 to 202 °C
IC50 [1]: 17.12 ± 0.15 µM
SMILES: COc1ccc(C2CC(c3ccc(OC)c(OC)c3)=NN2c2nc(C)c(N=Nc3ccc(S(N)(=O)=O)cc3)s2)cc1 (centres unmarked) [Compound 4b, 4-((2-(3-(3,4-Dimethoxyphenyl)-5-(4-methoxyphenyl)-4,5-dihydro-1H-pyrazol-1-yl)-4-methylthiazol-5-yl)diazenyl)benzenesulfonamide]

melting point: 210 to 212 °C
IC50 [1]: 18.7 ± 0.22 µM
SMILES: COc1ccc(C2=NN(c3nc(C)c(N=Nc4ccc(Cl)cc4)s3)C(c3ccc(Cl)cc3)C2)cc1OC (centres unmarked) [Compound 4c, 2-(5-(4-Chlorophenyl)-3-(3,4-dimethoxyphenyl)-4,5-dihydro-1H-pyrazol-1-yl)-5-((4-chlorophenyl)diazenyl)-4-methylthiazole]

melting point: 208 to 210 °C
IC50 [1]: 17.1 ± 0.21 µM
SMILES: COc1ccc(C2=NN(c3nc(C)c(N=Nc4ccc(S(N)(=O)=O)cc4)s3)C(c3ccc(Cl)cc3)C2)cc1OC (centres unmarked) [Compound 4d, 4-((2-(5-(4-Chlorophenyl)-3-(3,4-dimethoxyphenyl)-4,5-dihydro-1H-pyrazol-1-yl)-4-methylthiazol-5-yl)diazenyl)benzenesulfonamide]

IC50 [1]: 30.24 ± 0.24 µM
SMILES: COc1ccc(C2CC(c3ccc(OC)c(OC)c3)=NN2C2=NC(=O)C(=NNc3ccc(Cl)cc3)S2)cc1 (centres unmarked) [Compound 5a, 5-(2-(4-Chlorophenyl)hydrazineylidene)-2-(3-(3,4-dimethoxyphenyl)-5-(4-methoxyphenyl)-4,5-dihydro-1H-pyrazol-1-yl)thiazol-4(5H)-one]

melting point: 249 to 251 °C
IC50 [1]: 27.31 ± 0.26 µM
SMILES: COc1ccc(C2CC(c3ccc(OC)c(OC)c3)=NN2C2=NC(=O)C(=NNc3ccc(S(N)(=O)=O)cc3)S2)cc1 (centres unmarked) [Compound 5b, 4-(2-(2-(3-(3,4-Dimethoxyphenyl)-5-(4-methoxyphenyl)-4,5-dihydro-1H-pyrazol-1-yl)-4-oxothiazol-5(4H)-ylidene)hydrazineyl)benzenesulfonamide]

melting point: 278 to 280 °C
IC50 [1]: 28.03 ± 0.25 µM
SMILES: COc1ccc(C2=NN(C3=NC(=O)C(=NNc4ccc(Cl)cc4)S3)C(c3ccc(Cl)cc3)C2)cc1OC (centres unmarked) [Compound 5c, 2-(5-(4-Chlorophenyl)-3-(3,4-dimethoxyphenyl)-4,5-dihydro-1H-pyrazol-1-yl)-5-(2-(4-chlorophenyl)hydrazineylidene)thiazol-4(5H)-one]

melting point: 292 to 294 °C
IC50 [1]: 25.7 ± 0.12 µM
SMILES: COc1ccc(C2=NN(C3=NC(=O)C(=NNc4ccc(S(N)(=O)=O)cc4)S3)C(c3ccc(Cl)cc3)C2)cc1OC (centres unmarked) [Compound 5d, 4-(2-(2-(5-(4-Chlorophenyl)-3-(3,4-dimethoxyphenyl)-4,5-dihydro-1H-pyrazol-1-yl)-4-oxothiazol-5(4H)-ylidene)hydrazineyl)benzenesulfonamide]

IC50 [1]: 4.08 ± 0.08 µM
IC50 [5]: 0.024 ± 0.005 µM
IC50 [6]: 0.047 ± 0.008 µM
SMILES: COc1ccc(C2CC(c3ccc(OC)c(OC)c3)=NN2C2=NC(=O)CS2)cc1 (centres unmarked) [Compound 6a, 2-(3-(3,4-Dimethoxyphenyl)-5-(4-methoxyphenyl)-4,5-dihydro-1H-pyrazol-1-yl)thiazol-4(5H)-one]
IC50 [2]: ≥ 50 µM
DNA Content %G0-G1 [3]: 69.82%
DNA Content %G2/M [3]: 8.12%
DNA Content %S [3]: 22.06%
Apoptosis Early [4]: 28.17%
Apoptosis Late [4]: 17.98%
Necrosis [4]: 4.88%

melting point: 208 to 210 °C
IC50 [1]: 5.64 ± 0.11 µM
IC50 [5]: 0.026 ± 0.002 µM
IC50 [6]: 0.081 ± 0.006 µM
SMILES: COc1ccc(C2=NN(C3=NC(=O)CS3)C(c3ccc(Cl)cc3)C2)cc1OC (centres unmarked) [Compound 6b, 2-(5-(4-Chlorophenyl)-3-(3,4-dimethoxyphenyl)-4,5-dihydro-1H-pyrazol-1-yl)thiazol-4(5H)-one]
IC50 [2]: 32.8 ± 1.27 µM

melting point: 294 to 296 °C
IC50 [1]: 17.79 ± 0.14 µM
SMILES: COc1ccc(C2CC(c3ccc(OC)c(OC)c3)=NN2C2=NC(=O)C(=Cc3ccccc3)S2)cc1 (centres unmarked) [Compound 7a, 5-Benzylidene-2-(3-(3,4-dimethoxyphenyl)-5-(4-methoxyphenyl)-4,5-dihydro-1H-pyrazol-1-yl)thiazol-4(5H)-one]

melting point: 245 to 247 °C
IC50 [1]: 20 ± 0.22 µM
SMILES: COc1ccc(C=C2SC(N3N=C(c4ccc(OC)c(OC)c4)CC3c3ccc(OC)cc3)=NC2=O)cc1 (centres unmarked) [Compound 7b, 2-(3-(3,4-Dimethoxyphenyl)-5-(4-methoxyphenyl)-4,5-dihydro-1H-pyrazol-1-yl)-5-(4-methoxybenzylidene)thiazol-4(5H)-one]

melting point: 283 to 285 °C
IC50 [1]: 21.2 ± 0.24 µM
SMILES: COc1ccc(C2=NN(C3=NC(=O)C(=Cc4ccccc4)S3)C(c3ccc(Cl)cc3)C2)cc1OC (centres unmarked) [Compound 7c, 5-Benzylidene-2-(5-(4-chlorophenyl)-3-(3,4-dimethoxyphenyl)-4,5-dihydro-1H-pyrazol-1-yl)thiazol-4(5H)-one]

melting point: 250 to 252 °C
IC50 [1]: 20.17 ± 0.19 µM
SMILES: COc1ccc(C=C2SC(N3N=C(c4ccc(OC)c(OC)c4)CC3c3ccc(Cl)cc3)=NC2=O)cc1 (centres unmarked) [Compound 7d, 2-(5-(4-Chlorophenyl)-3-(3,4-dimethoxyphenyl)-4,5-dihydro-1H-pyrazol-1-yl)-5-(4-methoxybenzylidene)thiazol-4(5H)-one]

melting point: > 300 °C
IC50 [1]: 21.33 ± 0.21 µM
SMILES: COc1ccc(C2CC(c3ccc(OC)c(OC)c3)=NN2C2=NC(=O)C(=C3C(=O)Nc4ccccc43)S2)cc1 (centres unmarked) [Compound 8a, 2-(3-(3,4-Dimethoxyphenyl)-5-(4-methoxyphenyl)-4,5-dihydro-1H-pyrazol-1-yl)-5-(2-oxoindolin-3-ylidene)thiazol-4(5H)-one]

melting point: > 300 °C
IC50 [1]: 19.5 ± 0.27 µM
SMILES: COc1ccc(C2=NN(C3=NC(=O)C(=C4C(=O)Nc5ccccc54)S3)C(c3ccc(Cl)cc3)C2)cc1OC (centres unmarked) [Compound 8b, 2-(5-(4-Chlorophenyl)-3-(3,4-dimethoxyphenyl)-4,5-dihydro-1H-pyrazol-1-yl)-5-(2-oxoindolin-3-ylidene)thiazol-4(5H)-one]

IC50 [1]: 3.37 ± 0.13 µM
IC50 [5]: 0.005 ± 0.002 µM
IC50 [6]: 0.022 ± 0.005 µM
SMILES: COc1ccc(C2CC(c3ccc(OC)c(OC)c3)=NN2c2nc(-c3cc4ccccc4oc3=O)cs2)cc1 (centres unmarked) [Compound 10a, 3-(2-(3-(3,4-Dimethoxyphenyl)-5-(4-methoxyphenyl)-4,5-dihydro-1H-pyrazol-1-yl)thiazol-4-yl)-2H-chromen-2-one]
IC50 [2]: ≥ 50 µM
DNA Content %G0-G1 [3]: 66.41%
DNA Content %G2/M [3]: 4.04%
DNA Content %S [3]: 29.55%
cell accumulation at S phase relative to control ([3]; MCF-7, compound at its IC50, control 26.33%): 1.12 folds
cell accumulation at G0-G1 relative to control ([3]; MCF-7, compound at its IC50, control 62.59%): 1.06 folds
Apoptosis Early [4]: 19.22%
Apoptosis Late [4]: 15.91%
Necrosis [4]: 7.53%

melting point: 238 to 240 °C
IC50 [1]: 3.54 ± 0.07 µM
IC50 [5]: 0.029 ± 0.004 µM
IC50 [6]: 0.065 ± 0.007 µM
SMILES: COc1ccc(C2=NN(c3nc(-c4cc5ccccc5oc4=O)cs3)C(c3ccc(Cl)cc3)C2)cc1OC (centres unmarked) [Compound 10b, 3-(2-(5-(4-Chlorophenyl)-3-(3,4-dimethoxyphenyl)-4,5-dihydro-1H-pyrazol-1-yl)thiazol-4-yl)-2H-chromen-2-one]
IC50 [2]: 27.1 ± 1.98 µM

SMILES: Brc1ccc(C2=NN(c3nc(-c4ccc(Br)cc4)cs3)C(c3ccc4c(c3)OCO4)C2)cc1 (centres unmarked) [III]
IC50 [7]: 0.18 µM
IC50 [8]: 0.09 µM

SMILES: COc1ccc(C2CC(c3ccc(Cl)cc3Cl)=NN2c2nc(C)c(C(=O)Nc3ccccc3)s2)cc1OC (centres unmarked) [II]
IC50 [9]: 0.032 µM
IC50 [10]: 2.92 µM

SMILES: COc1ccc(C2CC(c3ccc(OC)c(OC)c3)=NN2c2nc(-c3ccccc3)cs2)cc1 (centres unmarked) [IV]
IC50 [9]: 0.009 µM
IC50 [7]: 0.013 µM
IC50 [8]: 7.21 µM

SMILES: Cc1ccc(C2=NN(c3nc(-c4ccc(Cl)cc4)cs3)C(c3ccc(F)cc3)C2)cc1C (centres unmarked) [I]
IC50 [9]: 0.06 µM
IC50 [8]: 0.07 µM

IC50 [1]: 5.88 ± 0.04 µM
SMILES: CS(=O)(=O)CCNCc1ccc(-c2ccc3ncnc(Nc4ccc(OCc5cccc(F)c5)c(Cl)c4)c3c2)o1 [Lapatinib, reference compound]
IC50 [2]: ≥ 50 µM

SMILES: Cc1ccc(C2=NN(C3=NC(=O)/C(=C/c4ccc(O)cc4)S3)C(c3ccc(F)cc3)C2)cc1 (centres unmarked) [VI]
IC50 [9]: 0.083 µM
IC50 [11]: 1.15 µM

SMILES: COc1ccc2nc(Cl)c(C3CC(c4ccc(C)cc4)=NN3c3nc(-c4ccc(F)cc4)cs3)cc2c1 (centres unmarked) [V]
IC50 [9]: 0.031 µM
IC50 [8]: 0.227 µM
